How the values were obtained:
[1] = system: prostate cancer cell line DU145; assay: Various human cancer cell growth inhibition test: DU145; type: cell-based; settings: DU 145, ATPlite, read-out: GI50 value (concentration necessary for inhibiting 50% of cell growth)
Text: (§1) A breast cancer cell line BT-549 (obtained from American Type Culture Collection (ATCC)), a uterus cancer cell line C-33A (obtained from ATCC), an ovary cancer cell line PA-1 (obtained from ATCC), a large-cell lung cancer cell line NCI-H460 (obtained from ATCC), a small-cell lung cancer cell line NCI-H82 (obtained from ATCC), a kidney cancer cell line ACHN (obtained from ATCC), a pancreatic cancer cell line BxPC-3 (obtained from ATCC), a malignant melanoma cell line A375 (obtained from ATCC), a throat cancer cell line FaDu (obtained from ATCC), a medulloblastoma cell line Daoy (obtained from ATCC), a cutaneous epithelioid sarcoma cell line VA-ES-BJ (obtained from ATCC), a rhabdomyosarcoma cell line A-204 (obtained from ATCC), a prostate cancer cell line DU145 (obtained from ATCC), a bladder cancer cell line T24 (obtained from ATCC), a lymphoma cell line SR (obtained from ATCC), a neuroblastoma cell line SH-SY5Y (obtained from DS Pharma Biomedical Co., Ltd.), a liver cancer cell line HepG2 (obtained from DS Pharma Biomedical Co., Ltd.), a stomach cancer cell line HGC-27 (obtained from DS Pharma Biomedical Co., Ltd.), and a multiple myeloma cell line NCI-H929 (obtained from DS Pharma Biomedical Co., Ltd.) were used as human cancer cell lines.
(§2) Each cell line was cultured in a cell culture medium recommended by ATCC or DS Pharma Biomedical Co., Ltd. and inoculated at 0.3 to 5.0×10^3 cells/well to a 96-well plate. The cells were cultured overnight in a carbon dioxide incubator of 37° C. containing 5% carbon dioxide. The medium was replaced with a fresh medium on the next day, then replaced with a mixed solution of a DMSO solution of a test compound with varying concentrations and a culture medium (final DMSO concentration: 0.1%), and left standing in a carbon dioxide incubator (day 0). IV-361, IV-379, IV-3, IV-215, IV-299, IV-669, IV-1049, and palbociclib (for comparison) were used as test compounds. For a control group, DMSO was added instead of the DMSO solution of the test compound to a cell culture medium (final DMSO concentration: 0.1%).
(§3) After culture for a predetermined period, the ATP activity of BT-549, C-33A, PA-1, NCI-H460, NCI-H82, ACHN, BxPC-3, A375, FaDu, Daoy, VA-ES-BJ, A-204, DU145, T24, and SR was measured by using ATPlite (manufactured by PerkinElmer, Inc.). The ATP activity of SH-SY5Y, HepG2, HGC-27, and NCI-H929 was measured by using CellTiter-Glo (manufactured by Promega Corp.).
(§4) The rate of inhibition of cell growth (%) was calculated according to the expression given below. Specifically, in the case where the difference between the ATP activity before culture (day 0) and the ATP activity after culture in the test compound-administered group is the same as the difference between the ATP activity before culture (day 0) and the ATP activity after culture in the control group, the rate of inhibition of cell growth is 0%. Rate of inhibition of cell growth=(1−((ATP activity of the test compound-administered group after culture)−(ATP activity of the test compound-administered group on day 0))/((ATP activity of the control group after culture)−(ATP activity of the control group on day 0)))×100
(§5) The concentration of the test compound necessary for inhibiting 50% of cell growth (GI50 value) was calculated by using EXSUS (version 8.1.0, manufactured by CAC Exicare Corp.).

[2] = system: malignant melanoma cell line A375; assay: Various human cancer cell growth inhibition test: A375; type: cell-based; settings: A-375, ATPlite, read-out: GI50 value (concentration necessary for inhibiting 50% of cell growth)
Text: as §1, §2, §3, §4, §5

[3] = system: rhabdomyosarcoma cell line A-204; assay: Various human cancer cell growth inhibition test: A-204; type: cell-based; settings: A204, ATPlite, read-out: GI50 value (concentration necessary for inhibiting 50% of cell growth)
Text: as §1, §2, §3, §4, §5

[4] = system: breast cancer cell line BT-549; assay: Various human cancer cell growth inhibition test: BT-549; type: cell-based; settings: ATPlite, read-out: GI50 value (concentration necessary for inhibiting 50% of cell growth)
Text: as §1, §2, §3, §4, §5

[5] = system: large-cell lung cancer cell line NCI-H460; assay: Various human cancer cell growth inhibition test: NCI-H460; type: cell-based; settings: ATPlite, read-out: GI50 value (concentration necessary for inhibiting 50% of cell growth)
Text: as §1, §2, §3, §4, §5

[6] = system: multiple myeloma cell line NCI-H929; assay: Various human cancer cell growth inhibition test: NCI-H929; type: cell-based; settings: CellTiter-Glo, read-out: GI50 value (concentration necessary for inhibiting 50% of cell growth)
Text: as §1, §2, §3, §4, §5

[7] = system: cutaneous epithelioid sarcoma cell line VA-ES-BJ; assay: Various human cancer cell growth inhibition test: VA-ES-BJ; type: cell-based; settings: ATPlite, read-out: GI50 value (concentration necessary for inhibiting 50% of cell growth)
Text: as §1, §2, §3, §4, §5

[8] = system: medulloblastoma cell line Daoy; assay: Various human cancer cell growth inhibition test: Daoy; type: cell-based; settings: ATPlite, read-out: GI50 value (concentration necessary for inhibiting 50% of cell growth)
Text: as §1, §2, §3, §4, §5

[9] = system: pancreatic cancer cell line BxPC-3; assay: Various human cancer cell growth inhibition test: BxPC-3; type: cell-based; settings: ATPlite, read-out: GI50 value (concentration necessary for inhibiting 50% of cell growth)
Text: as §1, §2, §3, §4, §5

lymphoma cell line SR = assay: Various human cancer cell growth inhibition test: SR; type: cell-based; settings: ATPlite, read-out: GI50 value (concentration necessary for inhibiting 50% of cell growth)
Text: as §1, §2, §3, §4, §5

[10] = system: small-cell lung cancer cell line NCI-H82; assay: Various human cancer cell growth inhibition test: NCI-H82; type: cell-based; settings: ATPlite, read-out: GI50 value (concentration necessary for inhibiting 50% of cell growth)
Text: as §1, §2, §3, §4, §5

[11] = system: liver cancer cell line HepG2; assay: Various human cancer cell growth inhibition test: HepG2; type: cell-based; settings: CellTiter-Glo, read-out: GI50 value (concentration necessary for inhibiting 50% of cell growth)
Text: as §1, §2, §3, §4, §5

[12] = system: mouse imiquimod-induced psoriasis model; assay: Ear thickening suppression test using mouse imiquimod-induced psoriasis model; type: in vivo; settings: topical, application of a 0.01% solution in methanol, female BALB/c mice, read-out: rate of inhibition of increase in ear thickness
Experimental: An imiquimod-induced psoriasis model test was carried out by modifying the method of Leslie van der Fits et al. (J. Immunol. 182, 5836 (2009)).
Female BALB/c mice (supplied by Charles River Laboratories Japan, Inc.) were used as laboratory animals. On the start day of the test, the thicknesses of the right auricles of the mice were measured with a thickness gauge (manufactured by TECLOCK Corp.). A test compound or a solvent was applied or orally administered thereto, and after a certain time, a certain amount of Beselna Cream 5% (containing 5% imiquimod, manufactured by Mochida Pharmaceutical Co., Ltd.) was applied to the insides of the right auricles. The test compound or solvent application or oral administration and the imiquimod application were carried out for a certain period, and the thicknesses of the right auricles were measured again on the final day. The thicknesses of the right auricles were compared between the solvent-administered group and the test compound group, and the rate of inhibition was calculated.

[13] = system: uterus cancer cell line C-33A; assay: Various human cancer cell growth inhibition test: C-33A; type: cell-based; settings: ATPlite, read-out: GI50 value (concentration necessary for inhibiting 50% of cell growth)
Text: as §1, §2, §3, §4, §5

[14] = system: kidney cancer cell line ACHN; assay: Various human cancer cell growth inhibition test: ACHN; type: cell-based; settings: ATPlite, read-out: GI50 value (concentration necessary for inhibiting 50% of cell growth)
Text: as §1, §2, §3, §4, §5

[15] = system: ovary cancer cell line PA-1; assay: Various human cancer cell growth inhibition test: PA-1; type: cell-based; settings: ATPlite, read-out: GI50 value (concentration necessary for inhibiting 50% of cell growth)
Text: as §1, §2, §3, §4, §5

[16] = system: stomach cancer cell line HGC-27; assay: Various human cancer cell growth inhibition test: HGC-27; type: cell-based; settings: CellTiter-Glo, read-out: GI50 value (concentration necessary for inhibiting 50% of cell growth)
Text: as §1, §2, §3, §4, §5

[17] = system: throat cancer cell line FaDu; assay: Various human cancer cell growth inhibition test: FaDu; type: cell-based; settings: ATPlite, read-out: GI50 value (concentration necessary for inhibiting 50% of cell growth)
Text: as §1, §2, §3, §4, §5

GI50 [1] [nM]	GI50 [2] [nM]	GI50 [3] [nM]	GI50 [4] [nM]	GI50 [5] [nM]	GI50 [6] [nM]	GI50 [8] [nM]	GI50 [9] [nM]	GI50 (lymphoma cell line SR) [nM]	GI50 [10] [nM]	GI50 [11] [nM]	GI50 [13] [nM]	GI50 [14] [nM]	GI50 [15] [nM]	GI50 [16] [nM]	GI50 [17] [nM]	Structure (SMILES)	GI50 [7] [nM]	inhibition in vivo at 0.01 % [12] [%]
< 300	< 300	< 300	< 300	< 300	< 300	< 300	< 300	< 300	< 300	300 to 1000	< 300	< 300	< 300	< 300	< 300	Cc1cccc(Br)c1NC(=O)N1Cc2c(NC(=O)C3([Si](C)(C)C)CCC3)n[nH]c2C1(C)C [IV-299, N-(2-Bromo-6-methylphenyl)-6,6-dimethyl-3-[1-(trimethylsilyl)cyclobutanecarboxamido]-4,6-dihydropyrrolo[3,4-c]pyrazole-5 (1H)-carboxamide]	< 300	≥ 50
< 300	< 300	< 300	< 300	< 300	< 300	< 300	< 300	< 300	< 300	< 300	< 300	< 300	< 300	< 300	< 300	Cc1cccc(Cl)c1NC(=O)N1Cc2c(NC(=O)C3([Si](C)(C)C)CCC3)n[nH]c2C1(C)C [IV-215, N-(2-Chloro-6-methylphenyl)-6,6-dimethyl-3-[1-(trimethylsilyl)cyclobutanecarboxamido]-4,6-dihydropyrrolo[3,4-c]pyrazole-5 (1H)-carboxamide]	< 300	≥ 50
< 300	< 300	< 300	< 300	< 300	< 300	< 300	< 300	< 300	< 300	300 to 1000	< 300	< 300	< 300	< 300	< 300	Cc1ccc(F)cc1NC(=O)N1Cc2c(NC(=O)C3([Si](C)(C)C)CCC3)n[nH]c2C1(C)C [IV-361, N-(5-Fluoro-2-methylphenyl)-6,6-dimethyl-3-[1-(trimethylsilyl)cyclobutanecarboxamido]-4,6-dihydropyrrolo[3,4-c]pyrazole-5 (1H)-carboxamide]	< 300	

— patent US10894798B2, “Substituted dihydropyrrolopyrazole derivative” (UBE INDUSTRIES, LTD., priority 2015, dated 2021)
